Test results published in patent publication US8247596B2 (Sumitomo Chemical Company, Limited, priority 2007, dated 2012).

Columns and labels:
Type in all cases: in vivo
[1] = test system: Musca domestica; test: Test Example 4: filter paper/sucrose bait test on Musca domestica; details: 24 h, read-out: pest death rate
Method: A formulation of any one of the present compounds (1), (4), (5), (7), (11), (12), (13), (18t), (18c), (19), (20), (21), (22), (24), (25t), (25c), (26t), (26c), (27), (29), (30), (31), (32), (33), (34), (35), (40), (41), (43), (49), (50) and (55) obtained according to Formulation Example 36 was diluted with water so that the active ingredient concentration was 500 ppm to obtain a test solution.
(§1) A filter paper having a diameter of 5.5 cm was spread on the bottom of a polyethylene cup having a diameter of 5.5 cm and 0.7 ml of the test solution was added dropwise onto the filter paper. As a bait 30 mg of sucrose was uniformly placed on the filter paper. Into the polyethylene cup, 10 female imagoes of Musca domestica were released and the cup was sealed with a lid. After 24 hours, the number of surviving Musca domestica was examined and the death rate of the pest was calculated.

[2] = test system: Haemaphysalis longicornis; test: Test Example 7: treated filter paper pouch test on ticks; details: filter paper treated with 100 mg/m^2, non-blood-sucking nymphal ticks, 10 ticks/group, two days after; for pest or weed control at 100 mg/m2: Haemaphysalis longicornis, 48 h, read-out: pest death rate
Method: Five milligrams of any one of the present compounds (4), (7), (18t), (22), (25t), (26t), (29), (30), (31), (32), (33), (34), (35), (40), (41), (42), (43), (44) and (55) was dissolved in 10 mL of acetone. One milliliter of the acetone solution was uniformly applied on one side of a filter paper (TOYO No. 2; 5×10 cm), so that the filter paper having a surface area of 50 cm^2 was treated with 100 mg/m^2 of the present compound. After drying, the filter paper was folded in two and its edges were clipped to make a pouch. Test ticks (non-blood-sucking nymphal ticks, Haemaphysalis longicornis, 10 ticks/group) were put into the pouch, and the pouch was sealed with clips. Two days after, the number of surviving ticks was examined and the death rate was calculated.

[3] = test system: Blattalla germanica; test: Test Example 5: filter paper/sucrose bait test on Blattalla germanica; details: for pest or weed control at 500 ppm: 144 h, read-out: pest death rate
Method: A formulation of any one of the present compounds (4), (5), (7), (12), (13), (18t), (18c), (22), (25t), (25c), (26t), (26c), (29), (30), (31), (32), (33), (34), (40), (41), (43), (49) and (55) obtained according to Formulation Example 36 was diluted with water so that the active ingredient concentration was 500 ppm to obtain a test solution.
as §1, with “2 male” for “10 female”, “Blattalla germanica” for “Musca domestica”, “6 days,” for “24 hours,”

[4] = test system: Culex pipiens pallens; test: Test Example 6: larvae of Culex pipiens pallens in treated water; details: 24 h, read-out: pest death rate
Method: A formulation of any one of the present compounds (7), (11), (12), (13), (17), (18t), (18c), (22), (24), (25t), (25c), (26t), (26c), (27), (29), (33), (34), (35), (36), (38), (40), (41), (43), (47), (49), (50) and (55) obtained according to Formulation Example 36 was diluted with water so that the active ingredient concentration was 500 ppm to obtain a test solution.
To 100 mL of ion-exchanged water, 0.7 ml of the test solution was added (active ingredient concentration: 3.5 ppm). Into the solution, 20 last-instar larvae of Culex pipiens pallens were released. One day after, the number of surviving Culex pipiens pallens was examined and the death rate of the pest was calculated.

Compound | pest or weed control at 500 ppm [1] [%] | pest or weed control at 500 ppm [3] [%] | pest or weed control at 3.5 ppm [4] [%] | other results
C#CC1CCC=CC1C(C#N)S(=O)(=O)CCC(F)(F)F (stereo not shown) [present compound (32), 2-(4-ethynyl-cyclohexen-3-yl)-2-(3,3,3-trifluoropropylsulfonyl)acetonitrile] | ≥ 90 | 100 | – | pest or weed control at 100 mg/m2 [2]: 90%
C#CC(C)C(C#N)(C1CCC(=NOC)CC1)S(=O)(=O)CCC(F)(F)F (stereo not shown) [present compound (44), 2-[4-(methoxyimino)cyclohexyl]-3-methyl-2-(3,3,3-trifluoropropylsulfonyl)-4-pentynenitrile] | – | – | – | pest or weed control at 100 mg/m2 [2]: 90%
O=S(=O)(CCC(F)(F)F)CC1CCC(F)(F)CC1 [present compound (4), 1,1-difluoro-4-(3,3,3,-trifluoropropylsulfonylmethyl)cyclohexanone] | ≥ 90 | 100 | – | pest or weed control at 100 mg/m2 [2]: 90%
C#CC1CCC(C[S+]([O-])CCC(F)(F)F)CC1 (stereo not shown) [present compound (26t), 1-ethynyl-4-(3,3,3-trifluoropropylsulfinylmethyl)cyclohexane] | ≥ 90 | 100 | ≥ 95 | pest or weed control at 100 mg/m2 [2]: 90%
N#CC(C1CCC(=NOCc2ccccc2)CC1)S(=O)(=O)CCC(F)(F)F (stereo not shown) [present compound (38), 2-[4-(O-benzylhydroxylimino)cyclohexyl]-2-(3,3,3-trifluoropropylsulfonyl)acetonitrile] | – | – | ≥ 95 | –
CC1CCC(C(C#N)S(=O)(=O)CCC(F)(F)F)CC1 (stereo not shown) [present compound (49), 2-(4-methylcyclohexyl)-2-(3,3,3-trifluoropropylsulfonyl)acetonitrile] | ≥ 90 | 100 | ≥ 95 | –
FC(F)(F)CCSCC1CCC(C=C(Br)Br)CC1 (stereo not shown) [present compound (24), 1-(2,2-dibromovinyl)-4-(3,3,3-trifluoropropylthiomethyl)cyclohexane] | ≥ 90 | – | ≥ 95 | –
CC(C)(C)ON=C1CCC(C(C#N)S(=O)(=O)CCC(F)(F)F)CC1 (stereo not shown) [present compound (36), 2-[4-(t-butoxyimino)cyclohexyl]-2-(3,3,3-trifluoropropylsulfonyl)acetonitrile] | – | – | ≥ 95 | –
O=S(=O)(CCC(F)(F)F)CC1CCC(C=C(Br)Br)CC1 (stereo not shown) [present compound (17), 1-(2,2-dibromovinyl)-4-(3,3,3-trifluoropropylsulfonylmethyl)cyclohexane] | – | – | ≥ 95 | –
C#CC1(O)CCC(C(C#N)S(=O)(=O)CCC(F)(F)F)CC1 (stereo not shown) [present compound (30), 2-(4-ethynyl-4-hydroxycyclohexyl)-2-(3,3,3-trifluoropropylsulfonyl)acetonitrile] | ≥ 90 | 100 | – | pest or weed control at 100 mg/m2 [2]: 90%
COC(=O)C(C1CCC(F)(F)CC1)S(=O)(=O)CCC(F)(F)F (stereo not shown) [present compound (11), methyl 2-(4,4-difluorocyclohexyl)-2-(3,3,3-trifluoropropylsulfonyl)acetate] | ≥ 90 | – | ≥ 95 | –
C=CC(C)C(C#N)(C1CCC(=NOC)CC1)S(=O)(=O)CCC(F)(F)F (stereo not shown) [present compound (43), 2-[4-(methoxyimino)cyclohexyl]-3-methyl-2-(3,3,3-trifluoropropylsufonyl)-4-pentenenitrile] | – | – | – | pest death rate [2]: 90%; pest death rate ([3]; 500 ppm, 0.7 ml on filter paper, 2 male imagoes of Blattalla germanica, after 6 days): 100%
N#CC(C1CCC(=NO)CC1)S(=O)(=O)CCC(F)(F)F (stereo not shown) [present compound (34), 2-[4-(hydroxyimino)cyclohexyl]-2-(3,3,3-trifluoropropylsulfonyl)acetonitrile] | ≥ 90 | 100 | ≥ 95 | pest or weed control at 100 mg/m2 [2]: 90%
C#CC1CCC(CSCCC(F)(F)F)CC1 (stereo not shown) [present compound (25c)] | ≥ 90 | 100 | ≥ 95 | –
O=S(=O)(CCC(F)(F)F)CC1CC=C(F)CC1 (stereo not shown) [present compound (5)] | ≥ 90 | 100 | – | –
N#CC(C1CCC2(CC1)OCCO2)S(=O)(=O)CCC(F)(F)F (stereo not shown) [present compound (27), 2-(1,4-dioxaspiro[4.5]dec-8-yl)-2-(3,3,3-trifluoropropylsulfonyl)acetonitrile] | ≥ 90 | – | ≥ 95 | –
N#CC1CCC(CS(=O)(=O)CCC(F)(F)F)CC1 (stereo not shown) [present compound (20), 1-cyano-4-(3,3,3-trifluoropropylsulfonylmethyl)cyclohexane] | ≥ 90 | – | – | –
NC(=O)C(F)(C1CCC(F)(F)CC1)S(=O)(=O)CCC(F)(F)F (stereo not shown) [present compound (13), 2-(4,4-difluorocyclohexyl)-2-fluoro-2-(3,3,3-trifluoropropylsulfonyl)acetamide] | ≥ 90 | 100 | ≥ 95 | –
C#CC1(F)CCC(C(C#N)S(=O)(=O)CCC(F)(F)F)CC1 (stereo not shown) [present compound (31), 2-(4-ethynyl-4-fluorocyclohexyl)-2-(3,3,3-trifluoropropylsulfonyl)acetonitrile] | ≥ 90 | 100 | – | pest or weed control at 100 mg/m2 [2]: 90%
N#CC(C1CCCCC1)S(=O)(=O)CCC(F)(F)F (stereo not shown) [present compound (47), 2-cyclohexyl-2-(3,3,3-trifluoropropylsulfonyl)acetonitrile] | – | – | ≥ 95 | –
COC(=O)C(F)(C1CCC(F)(F)CC1)S(=O)(=O)CCC(F)(F)F (stereo not shown) [present compound (12), methyl 2-(4,4-difluorocyclohexyl)-2-fluoro-2-(3,3,3-trifluoropropylsulfonyl)acetate] | ≥ 90 | 100 | ≥ 95 | –
FC(F)(F)CCSCC1CCC2(CC1)OCCO2 [present compound (1)] | ≥ 90 | – | – | –
CCON=C1CCC(C(C#N)S(=O)(=O)CCC(F)(F)F)CC1 (stereo not shown) [present compound (35), 2-[4-(ethoxyimino)cyclohexyl]-2-(3,3,3-trifluoropropylsufonyl)acetonitrile] | – | – | – | pest death rate [2]: 90%
CON=C1CCC(CS(=O)(=O)CCC(F)(F)F)CC1 (stereo not shown) [present compound (21), 4-(3,3,3-trifluoropropylsulfonylmethyl)-cyclohexanone O-methyloxime] | ≥ 90 | – | – | –
COC(=O)CCC#CC1CCC(CS(=O)(=O)CCC(F)(F)F)CC1 (stereo not shown) [present compound (19), 5-[4-(3,3,3-trifluoropropylsulfonylmethyl)cycohexanyl]-4-pentynic acid methyl ester] | ≥ 90 | – | – | –
CCCC(C#N)(C1CCC(=NOC)CC1)S(=O)(=O)CCC(F)(F)F (stereo not shown) [present compound (42), 2-[4-(methoxyimino)cyclohexyl]-2-(3,3,3-trifluoropropylsulfonyl)pentanenitrile] | – | – | – | pest or weed control at 100 mg/m2 [2]: 90%
CC1(C)CCC(C(C#N)S(=O)(=O)CCC(F)(F)F)CC1 (stereo not shown) [present compound (50), 2-(4,4-dimethylcyclohexyl)-2-(3,3,3-trifluoropropylsulfonyl)acetonitrile] | ≥ 90 | – | ≥ 95 | –
